Assay results as given in the supplement of paper PMC6045584.
± gives the standard deviation of the averaged measurements.

These test systems were tested with CO[C@H]1C[C@@H]2CC[C@@H](C)[C@@](O)(O2)C(=O)C(=O)N2CCCC[C@H]2C(=O)O[C@H]([C@H](C)C[C@@H]2CC[C@@H](OCCO)[C@H](OC)C2)CC(=O)[C@H](C)/C=C(\C)[C@@H](O)[C@@H](OC)C(=O)[C@H](C)C[C@H](C)/C=C/C=C/C=C/1C [EVEROLIMUS] (assay: surviving fraction relative to DMSO-only wells; higher = less growth inhibition). Conditions: 50 nM; exposure time: 5 days.
How it was run: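 Luminescence normalised to the median of DMSO-only wells defines surviving fraction, with viability read by CellTiter-Glo. Signal was recorded after 10 minutes at room temperature, once log-phase tumour cell lines seeded at 250–500 cells per well in 384-well plates had spent 24 hours settling and then five days under continuous exposure to inhibitors at 0.5, 1, 5, 10, 50, 100, 500 and 1000 nM.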
MDAMB231 BREAST gave a surviving fraction of 0.591 ± 0.022.
Work on MDAMB361 BREAST yielded a surviving fraction of 0.62 ± 0.028.
MDAMB436 BREAST gave a surviving fraction of 0.577 ± 0.025.
In the case of MDAMB453 BREAST, the surviving fraction is reported as 0.339 ± 0.035.
With MDAMB468 BREAST the surviving fraction was 0.55 ± 0.017.
MFM223 BREAST showed a surviving fraction of 0.669 ± 0.053.
Work on MG63 BONE yielded a surviving fraction of 0.594 ± 0.026.
For MHM BONE, the surviving fraction was 0.664 ± 0.029.
Test System NCIH441 LUNG has a surviving fraction of 0.864 ± 0.097.
NOS1 BONE gave a surviving fraction of 0.491 ± 0.03.
NY BONE gave a surviving fraction of 0.692 ± 0.013.
For OS25HAL BONE, the surviving fraction was 0.598 ± 0.014.
Test System OSHN BONE has a surviving fraction of 1.05 ± 0.054.
Test System PCI30 HEADNECK has a surviving fraction of 0.5 ± 0.051.
Test System RDES SOFT TISSUE has a surviving fraction of 0.981 ± 0.049.
In the case of S68 BREAST, the surviving fraction is reported as 0.356 ± 0.06.
SAOS2 BONE gave a surviving fraction of 0.909 ± 0.048.
With SCC36 HEADNECK the surviving fraction was 1.008 ± 0.0093.
SCC47 HEADNECK gave a surviving fraction of 0.961 ± 0.053.
With SCC90 HEADNECK the surviving fraction was 0.556 ± 0.019.
With SG27 HEADNECK the surviving fraction was 0.871 ± 0.037.
SG28 HEADNECK was tested, and the surviving fraction was 0.809 ± 0.026.
SG31 HEADNECK was tested, and the surviving fraction was 0.641 ± 0.035.
SG32 HEADNECK showed a surviving fraction of 0.813 ± 0.052.
SG43 HEADNECK was tested, and the surviving fraction was 0.874 ± 0.073.
SIHA CERVIX gave a surviving fraction of 0.605 ± 0.061.
For SJSA1 BONE, the surviving fraction was 1.38 ± 0.023.
Work on SKBR3 BREAST yielded a surviving fraction of 0.37 ± 0.03.
Test System SNU475 LIVER has a surviving fraction of 0.381 ± 0.028.
With SUM44 BREAST the surviving fraction was 0.819 ± 0.25.
SUM149 BREAST gave a surviving fraction of 0.462 ± 0.039.
SUM149.B1*.S BREAST showed a surviving fraction of 0.696 ± 0.16.
SUM159 BREAST showed a surviving fraction of 0.852 ± 0.06.
With SYO1 SYNOVIAL the surviving fraction was 0.508 ± 0.011.
For T47D BREAST, the surviving fraction was 0.646 ± 0.021.
Work on U2OS BONE yielded a surviving fraction of 0.678 ± 0.011.
In the case of VCAP PROSTATE, the surviving fraction is reported as 0.891 ± 0.15.
For VP229 BREAST, the surviving fraction was 0.584 ± 0.01.
With YAMATO SYNOVIAL the surviving fraction was 0.5 ± 0.021.
For ZR751 BREAST, the surviving fraction was 0.337 ± 0.014.

Same assay, conditions: 100 nM; exposure time: 5 days
In the case of MDAMB231 BREAST, the surviving fraction is reported as 0.575 ± 0.019.
For MDAMB361 BREAST, the surviving fraction was 0.584 ± 0.0067.
MDAMB436 BREAST showed a surviving fraction of 0.589 ± 0.046.
MDAMB453 BREAST was tested, and the surviving fraction was 0.305 ± 0.018.
In the case of MDAMB468 BREAST, the surviving fraction is reported as 0.601 ± 0.0052.
Test System MFM223 BREAST has a surviving fraction of 0.638 ± 0.068.
Work on MG63 BONE yielded a surviving fraction of 0.57 ± 0.02.
MHM BONE was tested, and the surviving fraction was 0.672 ± 0.019.
NCIH441 LUNG was tested, and the surviving fraction was 1.03 ± 0.082.
NOS1 BONE showed a surviving fraction of 0.461 ± 0.052.
NY BONE was tested, and the surviving fraction was 0.707 ± 0.015.
Test System OS25HAL BONE has a surviving fraction of 0.581 ± 0.039.
In the case of OSHN BONE, the surviving fraction is reported as 1.06 ± 0.024.
Test System PCI30 HEADNECK has a surviving fraction of 0.508 ± 0.025.
RDES SOFT TISSUE gave a surviving fraction of 1.03 ± 0.12.
In the case of S68 BREAST, the surviving fraction is reported as 0.336 ± 0.043.
SAOS2 BONE showed a surviving fraction of 0.936 ± 0.025.
Work on SCC36 HEADNECK yielded a surviving fraction of 0.909 ± 0.097.
SCC47 HEADNECK gave a surviving fraction of 0.961 ± 0.043.
SCC90 HEADNECK was tested, and the surviving fraction was 0.563 ± 0.039.
For SG27 HEADNECK, the surviving fraction was 0.904 ± 0.11.
In the case of SG28 HEADNECK, the surviving fraction is reported as 0.767 ± 0.0028.
In the case of SG31 HEADNECK, the surviving fraction is reported as 0.591 ± 0.1.
SG32 HEADNECK gave a surviving fraction of 0.601 ± 0.082.
For SG43 HEADNECK, the surviving fraction was 0.872 ± 0.13.
Test System SIHA CERVIX has a surviving fraction of 0.592 ± 0.049.
Work on SJSA1 BONE yielded a surviving fraction of 1.7 ± 0.048.
Work on SKBR3 BREAST yielded a surviving fraction of 0.316 ± 0.016.
In the case of SNU475 LIVER, the surviving fraction is reported as 0.35 ± 0.01.
SUM44 BREAST was tested, and the surviving fraction was 0.804 ± 0.16.
With SUM149 BREAST the surviving fraction was 0.411 ± 0.04.
For SUM149.B1*.S BREAST, the surviving fraction was 0.681 ± 0.17.
Test System SUM159 BREAST has a surviving fraction of 0.807 ± 0.014.
SYO1 SYNOVIAL showed a surviving fraction of 0.508 ± 0.0081.
T47D BREAST showed a surviving fraction of 0.664 ± 0.038.
U2OS BONE gave a surviving fraction of 0.651 ± 0.029.
In the case of VCAP PROSTATE, the surviving fraction is reported as 0.898 ± 0.027.
VP229 BREAST gave a surviving fraction of 0.541 ± 0.058.
YAMATO SYNOVIAL was tested, and the surviving fraction was 0.454 ± 0.0076.
Work on ZR751 BREAST yielded a surviving fraction of 0.353 ± 0.015.

Same assay, conditions: 500 nM; exposure time: 5 days
Test System MDAMB231 BREAST has a surviving fraction of 0.541 ± 0.038.
With MDAMB361 BREAST the surviving fraction was 0.547 ± 0.015.
Test System MDAMB436 BREAST has a surviving fraction of 0.633 ± 0.057.
MDAMB453 BREAST showed a surviving fraction of 0.301 ± 0.024.
Test System MDAMB468 BREAST has a surviving fraction of 0.551 ± 0.044.
Test System MFM223 BREAST has a surviving fraction of 0.706 ± 0.076.
MG63 BONE was tested, and the surviving fraction was 0.481 ± 0.021.
Test System MHM BONE has a surviving fraction of 0.63 ± 0.011.
For NCIH441 LUNG, the surviving fraction was 0.933 ± 0.056.
Work on NOS1 BONE yielded a surviving fraction of 0.415 ± 0.019.
For NY BONE, the surviving fraction was 0.644 ± 0.032.
OS25HAL BONE was tested, and the surviving fraction was 0.546 ± 0.034.
OSHN BONE showed a surviving fraction of 1.04 ± 0.057.
For PCI30 HEADNECK, the surviving fraction was 0.463 ± 0.03.
Test System RDES SOFT TISSUE has a surviving fraction of 1 ± 0.13.
S68 BREAST gave a surviving fraction of 0.26 ± 0.027.
In the case of SAOS2 BONE, the surviving fraction is reported as 0.826 ± 0.064.
SCC36 HEADNECK showed a surviving fraction of 0.842 ± 0.031.
SCC47 HEADNECK showed a surviving fraction of 0.937 ± 0.16.
Work on SCC90 HEADNECK yielded a surviving fraction of 0.522 ± 0.063.
Work on SG27 HEADNECK yielded a surviving fraction of 0.92 ± 0.046.
SG28 HEADNECK gave a surviving fraction of 0.68 ± 0.0028.
SG31 HEADNECK gave a surviving fraction of 0.539 ± 0.035.
For SG32 HEADNECK, the surviving fraction was 0.556 ± 0.025.
Test System SG43 HEADNECK has a surviving fraction of 0.908 ± 0.13.
SIHA CERVIX showed a surviving fraction of 0.498 ± 0.044.
SJSA1 BONE was tested, and the surviving fraction was 1.38 ± 0.26.
SKBR3 BREAST gave a surviving fraction of 0.312 ± 0.021.
Test System SNU475 LIVER has a surviving fraction of 0.303 ± 0.0065.
SUM44 BREAST showed a surviving fraction of 0.723 ± 0.17.
Test System SUM149 BREAST has a surviving fraction of 0.403 ± 0.023.
In the case of SUM149.B1*.S BREAST, the surviving fraction is reported as 0.698 ± 0.13.
SUM159 BREAST was tested, and the surviving fraction was 0.808 ± 0.022.
With SYO1 SYNOVIAL the surviving fraction was 0.484 ± 0.036.
T47D BREAST was tested, and the surviving fraction was 0.6 ± 0.018.
With U2OS BONE the surviving fraction was 0.633 ± 0.012.
VCAP PROSTATE gave a surviving fraction of 0.758 ± 0.078.
Test System VP229 BREAST has a surviving fraction of 0.507 ± 0.061.
Work on YAMATO SYNOVIAL yielded a surviving fraction of 0.401 ± 0.014.
Work on ZR751 BREAST yielded a surviving fraction of 0.322 ± 0.038.

Same assay, conditions: 1000 nM; exposure time: 5 days
Work on MDAMB231 BREAST yielded a surviving fraction of 0.521 ± 0.038.
For MDAMB361 BREAST, the surviving fraction was 0.543 ± 0.039.
For MDAMB436 BREAST, the surviving fraction was 0.558 ± 0.061.
In the case of MDAMB453 BREAST, the surviving fraction is reported as 0.284 ± 0.011.
MDAMB468 BREAST gave a surviving fraction of 0.522 ± 0.066.
Test System MFM223 BREAST has a surviving fraction of 0.754 ± 0.053.
Test System MG63 BONE has a surviving fraction of 0.4813 ± 0.0035.
MHM BONE gave a surviving fraction of 0.638 ± 0.032.
NCIH441 LUNG was tested, and the surviving fraction was 0.876 ± 0.076.
For NOS1 BONE, the surviving fraction was 0.362 ± 0.023.
NY BONE showed a surviving fraction of 0.6403 ± 0.0042.
With OS25HAL BONE the surviving fraction was 0.52 ± 0.022.
Work on OSHN BONE yielded a surviving fraction of 1.06 ± 0.023.
For PCI30 HEADNECK, the surviving fraction was 0.468 ± 0.013.
RDES SOFT TISSUE showed a surviving fraction of 1.04 ± 0.063.
S68 BREAST showed a surviving fraction of 0.285 ± 0.024.
SAOS2 BONE was tested, and the surviving fraction was 0.71 ± 0.049.
SCC36 HEADNECK was tested, and the surviving fraction was 0.733 ± 0.014.
Work on SCC47 HEADNECK yielded a surviving fraction of 0.843 ± 0.032.
For SCC90 HEADNECK, the surviving fraction was 0.5257 ± 0.0047.
For SG27 HEADNECK, the surviving fraction was 0.903 ± 0.08.
Test System SG28 HEADNECK has a surviving fraction of 0.775 ± 0.0028.
SG31 HEADNECK gave a surviving fraction of 0.574 ± 0.047.
In the case of SG32 HEADNECK, the surviving fraction is reported as 0.499 ± 0.026.
With SG43 HEADNECK the surviving fraction was 0.882 ± 0.071.
SIHA CERVIX was tested, and the surviving fraction was 0.499 ± 0.008.
In the case of SJSA1 BONE, the surviving fraction is reported as 1.73 ± 0.11.
For SKBR3 BREAST, the surviving fraction was 0.295 ± 0.018.
In the case of SNU475 LIVER, the surviving fraction is reported as 0.343 ± 0.017.
SUM44 BREAST gave a surviving fraction of 0.711 ± 0.11.
Test System SUM149 BREAST has a surviving fraction of 0.335 ± 0.03.
Work on SUM149.B1*.S BREAST yielded a surviving fraction of 0.653 ± 0.13.
SUM159 BREAST gave a surviving fraction of 0.784 ± 0.021.
In the case of SYO1 SYNOVIAL, the surviving fraction is reported as 0.45 ± 0.022.
T47D BREAST was tested, and the surviving fraction was 0.603 ± 0.022.
U2OS BONE showed a surviving fraction of 0.568 ± 0.03.
With VCAP PROSTATE the surviving fraction was 0.766 ± 0.056.
VP229 BREAST gave a surviving fraction of 0.511 ± 0.045.
YAMATO SYNOVIAL showed a surviving fraction of 0.473 ± 0.03.
ZR751 BREAST was tested, and the surviving fraction was 0.339 ± 0.0066.
